# Assay results published in patent US5049547A, “Composition for stimulating integumental melanocytes” (University Patents, Inc., priority 1989, dated 1991).
# Values joined by “and” are separate entries in the source; they are usually repeats but may differ in a detail not shown here. Equal values may be shown once. Read-outs that look alike come from different tables or passages of the source. Non-standard residues stand in square brackets, D forms with d. Residues, ends and D or L forms follow the SMILES beside them. dPhg = N[C@@H](C(=O)O)c1ccccc1; Nle = CCCC[C@H](N)C(=O)O
# What was measured:
# frog (Rana pipiens) skin = type: cell-based
# Procedure: (§1) Biological effect on in vivo and in vitro melanosome dispersion was examined using the frog (Rana pipiens) and the lizard (Anolis caroliniensis). [Hadley et al., ,Science 213:1025-1027(1981)]; similar examinations were conducted with respect to the duration of its ability to stimulate melanosome dispersion in vitro using the skin bioassay as described in Shimume, Endrochrinology, 54:553-560(1954). The in vitro results are depicted in Table I.
# [1] = test system: TA-98 strain of S. typhimurium; experiment: Ames microbacterial assay; conditions: spontaneous revertants subtracted
# Procedure: The Ames microbacterial assay was used for these tests which were performed both with and without a microsomal enzyme/NADPH generating system. Briefly, this test measures the number of reverse mutations which occur in special histidine-dependent strains of Salmonella typhimurium. Positives (mutations) are scored as the number of revertant cells which are able to form colonies in a histidine-deficient growth medium after exposure to a mutagenic substance.
# All substances were dissolved in sterile 0.9% sodium chloride (without preservatives) to concentrations of 10^-2, 10^-3 and 10^-4 Molar. The TA-98 strain of S. typhimurium was used and experiments were performed with and without exposure to S-9 rat liver microsomal enzymes and an NADPH generating system. This enzyme cocktail can metabolically activate some compounds to mutagenic species. In addition to the melanotropins, doxorybicin (Adriamycin™) was also simultaneously tested. […] It was thus included to act as a positive control. […] For the actual evalution of revertants, the identity of the specific test compounds was blinded.
# [2] = test system: lizard (Anolis caroliniensis) skin; experiment: in vitro lizard skin bioassay, melanosome dispersion; type: cell-based; conditions: alpha-MSH = 1.0
# Procedure: as §1
Molecule,"Relative Potency Frog (frog (Rana pipiens) skin; in vitro, alpha-MSH = 1.0)",Relative Potency Lizard [2],also measured
CCCC[C@H](NC(C)=O)C(=O)N[C@@H](CCC(=O)O)C(=O)N[C@@H](Cc1c[nH]cn1)C(=O)N[C@H](Cc1ccccc1)C(=O)N[C@@H](CCCNC(=N)N)C(=O)N[C@@H](Cc1ccccc1)C(=O)NCC(=O)N[C@@H](CCCCN)C(N)=O [Ac-[Nle^4 -D-Phe^7 -Phe^9]-alpha-MSH4-11 -NH2] (Ac-[Nle]EH[dF]RFGK-NH2),0.017,–,–
"COc1cccc2c1C(=O)c1c(O)c3c(c(O)c1C2=O)C[C@@](O)(C(=O)CO)C[C@@H]3O[C@H]1C[C@H](N)[C@H](O)[C@H](C)O1 [Adriamycin, Doxorubicin, reference compound]",–,–,[…] PLATE WITH S-9 ([1]; 10 µg/ml): 2500; […] PLATE WITHOUT S-9 ([1]; 10 µg/ml): 230; […] PLATE WITH S-9 ([1]; 1.0 g/ml): 100; […] PLATE WITHOUT S-9 ([1]; 1.0 g/ml): 0
CCCC[C@H](NC(C)=O)C(=O)N[C@@H](CCC(=O)O)C(=O)N[C@@H](Cc1ccccc1)C(=O)N[C@H](Cc1ccccc1)C(=O)N[C@@H](CCCNC(=N)N)C(=O)N[C@@H](Cc1c[nH]c2ccccc12)C(=O)NCC(=O)N[C@@H](CCCCN)C(N)=O [Ac-[Nle^4 -Phe^6 -D-Phe^7]-alpha-MSH4-11 -NH2] (Ac-[Nle]EF[dF]RWGK-NH2),0.012,–,–
CC(=O)N[C@@H](Cc1ccc(O)cc1)C(=O)N[C@@H](CCC(=O)O)C(=O)N[C@@H](Cc1c[nH]cn1)C(=O)N[C@H](Cc1ccccc1)C(=O)N[C@@H](CCCNC(=N)N)C(=O)N[C@@H](Cc1c[nH]c2ccccc12)C(=O)NCC(=O)N[C@@H](CCCCN)C(N)=O [Ac-[Tyr^4 -D-Phe^7]-alpha-MSH4-11 -NH2] (Ac-YEH[dF]RWGK-NH2),0.01,–,–
CCCC[C@H](NC(C)=O)C(=O)N[C@@H](CCC(=O)O)C(=O)N[C@@H](Cc1c[nH]cn1)C(=O)N[C@@H](C(=O)N[C@@H](CCCNC(=N)N)C(=O)N[C@@H](Cc1c[nH]c2ccccc12)C(=O)NCC(=O)N[C@@H](CCCCN)C(N)=O)c1ccccc1 [Ac-[Nle^4 -D-Plg^7]-alpha-MSH4-11 -NH2] (Ac-[Nle]EH[dPhg]RWGK-NH2),0.0003,0.0005,–
CCCC[C@H](NC(C)=O)C(=O)N[C@@H](CCC(=O)O)C(=O)N[C@@H](Cc1c[nH]cn1)C(=O)N[C@@H](C)C(=O)N[C@@H](CCCNC(=N)N)C(=O)N[C@@H](Cc1c[nH]c2ccccc12)C(=O)NCC(=O)N[C@@H](CCCCN)C(N)=O [Ac-[Nle^4 -Ala^7]-alpha-MSH4-11 -NH2] (Ac-[Nle]EHARWGK-NH2),–,–,Relative Potency Frog (frog (Rana pipiens) skin): 0.02
CCCC[C@H](NC(C)=O)C(=O)N[C@@H](CCC(=O)O)C(=O)N[C@@H](Cc1c[nH]cn1)C(=O)N[C@H](Cc1ccccc1)C(=O)N[C@@H](CCCNC(=N)N)C(=O)N[C@@H](Cc1c[nH]c2ccccc12)C(=O)NCC(N)=O [Ac-[Nle^4 -D-Phe^7]-alpha-MSH4-10 -NH2],0.02,–,REVERTANTS PER PLATE WITH S-9 ([1]; 10^-2 M): 0; […] PLATE WITHOUT S-9 ([1]; 10^-2 M): 0; REVERTANTS PER PLATE WITH S-9 ([1]; 10^-3 M): 0; […] PLATE WITHOUT S-9 ([1]; 10^-3 M): 0; REVERTANTS PER PLATE WITH S-9 ([1]; 10^-4 M): 0; […] PLATE WITHOUT S-9 ([1]; 10^-4 M): 0
Ac-[Nle^4 -D-Phe^7 -D-Arg^8 ]-alpha-MSH4-,–,0.0022,–
CCCC[C@H](NC(C)=O)C(=O)N[C@@H](CCC(=O)O)C(=O)N[C@@H](Cc1c[nH]cn1)C(=O)N[C@H](Cc1ccc(O)cc1)C(=O)N[C@@H](CCCNC(=N)N)C(=O)N[C@@H](Cc1c[nH]c2ccccc12)C(=O)NCC(=O)N[C@@H](CCCCN)C(N)=O [Ac-[Nle^4 -D-Tyr^7]-alpha-MSH4-11 -NH2] (Ac-[Nle]EH[dY]RWGK-NH2),0.0020 and 0.0033,1.0,–
CCCC[C@H](NC(C)=O)C(=O)N[C@@H](CCC(=O)O)C(=O)N[C@@H](Cc1c[nH]cn1)C(=O)N[C@@H](Cc1ccccc1)C(=O)N[C@H](CCCNC(=N)N)C(=O)N[C@@H](Cc1c[nH]c2ccccc12)C(=O)NCC(=O)N[C@@H](CCCCN)C(N)=O [Ac-[Nle^4 -D-Arg^8]-alpha-MSH4-11 -NH2] (Ac-[Nle]EHF[dR]WGK-NH2),0.000016,0.0022,–
CCCC[C@H](NC(C)=O)C(=O)N[C@@H](CCC(=O)O)C(=O)N[C@@H](Cc1c[nH]cn1)C(=O)N[C@@H](Cc1ccccc1)C(=O)N[C@@H](CCCNC(=N)N)C(=O)N[C@@H](Cc1c[nH]c2ccccc12)C(N)=O [Ac-[Nle^4]-alpha-MSH4-9 -NH2] (Ac-[Nle]EHFRW-NH2),0.0007,0.18,–
CCCC[C@H](NC(C)=O)C(=O)N[C@@H](CCC(=O)O)C(=O)N[C@@H](Cc1c[nH]cn1)C(=O)N[C@@H](Cc1ccc(O)cc1)C(=O)N[C@@H](CCCNC(=N)N)C(=O)N[C@@H](Cc1c[nH]c2ccccc12)C(=O)NCC(=O)N[C@@H](CCCCN)C(N)=O [Ac-[Nle^4 -Tyr^7]-alpha-MSH4-11 -NH2] (Ac-[Nle]EHYRWGK-NH2),–,0.0090,–
CCCC[C@H](NC(C)=O)C(=O)N[C@@H](CCC(=O)O)C(=O)N[C@@H](Cc1c[nH]cn1)C(=O)N[C@H](Cc1ccccc1)C(=O)N[C@@H](CCCNC(=N)N)C(=O)N[C@H](Cc1c[nH]c2ccccc12)C(N)=O [Ac-[Nle^4 -D-Phe^7 -D-Trp^9]-alpha-MSH4-9 -NH2] (Ac-[Nle]EH[dF]R[dW]-NH2),0.03,3.8,–
Ac-[Phe-Gly^7 ]-alpha-MSH4-11 -NH2,0.10,–,–
CCCC[C@H](NC(C)=O)C(=O)N[C@@H](CCC(=O)O)C(=O)N[C@@H](Cc1c[nH]cn1)C(=O)N[C@H](C)C(=O)N[C@@H](CCCNC(=N)N)C(=O)N[C@@H](Cc1c[nH]c2ccccc12)C(=O)NCC(=O)N[C@@H](CCCCN)C(N)=O [Ac-[Nle^4 -D-Ala^7]-alpha-MSH4-11 -NH2] (Ac-[Nle]EH[dA]RWGK-NH2),0.000080,0.020,–
CCCC[C@H](NC(C)=O)C(=O)N[C@@H](CCC(=O)O)C(=O)N[C@@H](Cc1c[nH]cn1)C(=O)N[C@@H](Cc1ccccc1)C(=O)N[C@@H](CCCNC(=N)N)C(=O)N[C@@H](Cc1c[nH]c2ccccc12)C(=O)NCC(=O)N[C@@H](CCCCN)C(N)=O [Ac-[Nle^4 ]-alpha-MSH4-11 -NH2] (Ac-[Nle]EHFRWGK-NH2),0.0019,–,–
CC(=O)N[C@@H](CCC(=O)O)C(=O)N[C@@H](Cc1c[nH]cn1)C(=O)N[C@H](Cc1ccccc1)C(=O)N[C@@H](CCCNC(=N)N)C(=O)N[C@@H](Cc1c[nH]c2ccccc12)C(=O)NCC(=O)N[C@@H](CCCCN)C(N)=O [Ac-[D-Phe^7]-alpha-MSH5-11 -NH2] (Ac-EH[dF]RWGK-NH2),0.01,–,–
